# Columns and labels:
# [1] = molecular target: T1, D1R-Rluc with β-arrestin-2-Venus (Homo sapiens, UniProt P21728); assay type: cell-based; conditions: agonist; GRK2 co-transfected; HEK-293T cells
# T1 construct: gene DRD1; D1R with N-terminal signal peptide and Flag or Myc tag, fused to Renilla luciferase 8; GRK2 co-transfected; HEK-293T cells; with Beta-arrestin-2
# [2] = molecular target: T2, D3R, Go activation (Homo sapiens, UniProt P35462); assay: BRET Go activation (GαoA-Rluc / γ2-GFP10); assay type: cell-based; conditions: partial agonist; HEK-293T cells
# T2 construct: gene DRD3; N-terminal signal peptide and Flag or Myc tag; co-transfected GαoA91-Rluc, Gγ2-GFP10 and untagged Gβ2; HEK-293T cells
# [3] = molecular target: T3, D2R (D2SR), Go activation (Homo sapiens, UniProt P14416); conditions: partial agonist; HEK-293T cells
# T3 construct: gene DRD2
# [4] = molecular target: T4, D1R-Rluc with Golf-Venus (D1L_GolfV) (Homo sapiens, UniProt P21728); assay: BRET receptor-Gα engagement, D1R-Rluc / Golf-Venus; assay type: cell-based; conditions: antagonist against […] SKF81297; HEK-293T cells
# T4 construct: gene DRD1; D1R with N-terminal signal peptide and Flag or Myc tag, fused to Renilla luciferase 8; Gαolf with inserted Venus; G protein chaperone Ric8B co-transfected, untagged Gβ2 and Gγ7 available; HEK-293T cells
# T4 sequence (P21728 whole entry, the tested form may be a part): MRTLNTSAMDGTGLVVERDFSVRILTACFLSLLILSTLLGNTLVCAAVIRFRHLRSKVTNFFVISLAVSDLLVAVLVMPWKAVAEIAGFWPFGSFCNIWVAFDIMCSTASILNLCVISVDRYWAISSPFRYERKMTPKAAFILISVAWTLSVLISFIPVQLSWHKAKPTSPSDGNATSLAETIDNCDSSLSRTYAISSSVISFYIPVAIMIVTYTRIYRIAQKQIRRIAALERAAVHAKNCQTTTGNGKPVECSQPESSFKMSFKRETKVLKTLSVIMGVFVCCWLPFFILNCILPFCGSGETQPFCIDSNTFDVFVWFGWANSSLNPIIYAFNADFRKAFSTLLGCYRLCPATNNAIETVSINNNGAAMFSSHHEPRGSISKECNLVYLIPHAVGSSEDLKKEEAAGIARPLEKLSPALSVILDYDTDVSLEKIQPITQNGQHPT
# T4 sequence (P38405 2-381 partner): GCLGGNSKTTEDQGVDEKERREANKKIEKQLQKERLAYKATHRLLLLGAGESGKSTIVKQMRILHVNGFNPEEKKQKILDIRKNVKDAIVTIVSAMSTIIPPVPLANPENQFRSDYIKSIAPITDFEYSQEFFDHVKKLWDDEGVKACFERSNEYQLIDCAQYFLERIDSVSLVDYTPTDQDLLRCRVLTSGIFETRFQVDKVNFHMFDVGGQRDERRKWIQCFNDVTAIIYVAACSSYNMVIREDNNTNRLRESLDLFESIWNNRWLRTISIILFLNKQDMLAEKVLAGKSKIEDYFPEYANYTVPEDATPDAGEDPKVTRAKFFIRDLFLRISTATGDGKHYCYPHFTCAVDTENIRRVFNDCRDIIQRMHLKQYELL
# T1 sequence (P21728 whole entry, the tested form may be a part): as the sequence (P21728 whole entry, the tested form may be a part) above
# T1 sequence (P32121 whole entry partner, the tested form may be a part): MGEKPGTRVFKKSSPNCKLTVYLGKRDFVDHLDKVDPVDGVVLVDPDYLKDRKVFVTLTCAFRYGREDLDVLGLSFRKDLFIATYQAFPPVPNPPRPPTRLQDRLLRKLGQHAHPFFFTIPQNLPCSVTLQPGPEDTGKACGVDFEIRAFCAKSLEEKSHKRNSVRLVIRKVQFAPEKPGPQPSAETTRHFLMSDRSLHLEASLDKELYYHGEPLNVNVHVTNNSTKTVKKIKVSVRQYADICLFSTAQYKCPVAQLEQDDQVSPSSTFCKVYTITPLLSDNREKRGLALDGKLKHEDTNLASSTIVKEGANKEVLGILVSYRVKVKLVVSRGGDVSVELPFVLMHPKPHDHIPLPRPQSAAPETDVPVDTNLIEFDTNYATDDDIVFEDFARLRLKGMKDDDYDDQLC
# T3 sequence (P14416 1-414 isoform P14416-2): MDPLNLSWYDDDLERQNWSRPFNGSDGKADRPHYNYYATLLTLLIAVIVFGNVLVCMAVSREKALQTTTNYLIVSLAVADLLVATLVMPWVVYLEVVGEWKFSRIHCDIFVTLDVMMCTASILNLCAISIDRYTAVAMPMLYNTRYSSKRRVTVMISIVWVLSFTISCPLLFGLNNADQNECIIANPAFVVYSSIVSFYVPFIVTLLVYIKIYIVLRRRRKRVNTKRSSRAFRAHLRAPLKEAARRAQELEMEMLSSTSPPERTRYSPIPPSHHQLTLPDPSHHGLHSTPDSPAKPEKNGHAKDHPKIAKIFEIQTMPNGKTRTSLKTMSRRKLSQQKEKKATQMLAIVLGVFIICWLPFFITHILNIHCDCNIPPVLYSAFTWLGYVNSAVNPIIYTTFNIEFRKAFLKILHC
# T3 sequence (P09471 2-354 partner): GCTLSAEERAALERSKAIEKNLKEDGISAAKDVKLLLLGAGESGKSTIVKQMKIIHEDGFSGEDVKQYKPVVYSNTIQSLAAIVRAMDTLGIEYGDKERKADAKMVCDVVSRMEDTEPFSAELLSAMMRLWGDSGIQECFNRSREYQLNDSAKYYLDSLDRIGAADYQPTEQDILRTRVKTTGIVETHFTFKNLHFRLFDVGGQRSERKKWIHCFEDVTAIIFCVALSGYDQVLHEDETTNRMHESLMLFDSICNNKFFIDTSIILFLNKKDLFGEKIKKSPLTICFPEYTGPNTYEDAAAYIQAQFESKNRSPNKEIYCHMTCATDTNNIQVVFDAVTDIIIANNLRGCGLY
# T2 sequence (P35462 whole entry): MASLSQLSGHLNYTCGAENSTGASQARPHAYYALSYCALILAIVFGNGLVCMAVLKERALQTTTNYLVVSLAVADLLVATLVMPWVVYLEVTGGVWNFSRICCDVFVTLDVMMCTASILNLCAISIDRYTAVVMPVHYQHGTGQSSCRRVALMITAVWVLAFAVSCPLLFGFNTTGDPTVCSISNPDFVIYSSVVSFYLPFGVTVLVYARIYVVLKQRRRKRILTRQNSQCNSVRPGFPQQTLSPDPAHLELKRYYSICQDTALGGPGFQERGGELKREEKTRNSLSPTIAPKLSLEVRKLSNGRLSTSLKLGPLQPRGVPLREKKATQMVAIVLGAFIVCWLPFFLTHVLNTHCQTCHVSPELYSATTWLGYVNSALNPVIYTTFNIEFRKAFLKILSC
# T2 sequence (P09471 2-354 partner): as the sequence (P09471 2-354 partner) above
SMILES,EC50 [1],further results
Oc1cc2c(cc1O)C(c1ccccc1)CNCC2 (centres unmarked) [SKF38393],"SKF81297 and SKF38393 showed reduced and minimal β-arrestin-2 recruitment, respectively",
Oc1cc2c(cc1O)C1c3ccccc3CNC1CC2 (centres unmarked) [DHX],DHX and NPA behaved similarly to Gs engagement in terms of efficacy and potency,EC50 [2]: less efficacious at D2R and D3R-mediated Go activation than at D1R-mediated Gs activation; EC50 [3]: less efficacious at D2R and D3R-mediated Go activation than at D1R-mediated Gs activation
CCCN1CCc2cccc3c2[C@H]1Cc1ccc(O)c(O)c1-3 [NPA],DHX and NPA behaved similarly to Gs engagement in terms of efficacy and potency,
C=CCN1CCc2c(cc(O)c(O)c2Cl)C(c2ccccc2)C1 (centres unmarked) [SKF82958],A77636 and SKF82958 maintained their high potencies and efficacies in the β-arrestin-2 recruitment assay,
NC[C@@H]1O[C@H](C23CC4CC(CC(C4)C2)C3)Cc2c1ccc(O)c2O [A77636],A77636 and SKF82958 maintained their high potencies and efficacies in the β-arrestin-2 recruitment assay,
CN1CCc2cc(Cl)c(O)cc2[C@@H](c2ccccc2)C1 [SCH23390],,IC50 [4]: Dose-response curves of BRET between D1R-Rluc and Golf-Venus (same color scheme)
